pIC50: −log10 of the molar value.

One may read the pIC50 as the negative decadic logarithm of the IC50, by convention in mol/L. Read a high pIC50 as a small IC50.

The target in the experiment is T1, cellular PARG (Homo sapiens, UniProt Q86W56).
T1 construct: endogenous in cells; host or cells: HeLa
T1 sequence (Q86W56 whole entry): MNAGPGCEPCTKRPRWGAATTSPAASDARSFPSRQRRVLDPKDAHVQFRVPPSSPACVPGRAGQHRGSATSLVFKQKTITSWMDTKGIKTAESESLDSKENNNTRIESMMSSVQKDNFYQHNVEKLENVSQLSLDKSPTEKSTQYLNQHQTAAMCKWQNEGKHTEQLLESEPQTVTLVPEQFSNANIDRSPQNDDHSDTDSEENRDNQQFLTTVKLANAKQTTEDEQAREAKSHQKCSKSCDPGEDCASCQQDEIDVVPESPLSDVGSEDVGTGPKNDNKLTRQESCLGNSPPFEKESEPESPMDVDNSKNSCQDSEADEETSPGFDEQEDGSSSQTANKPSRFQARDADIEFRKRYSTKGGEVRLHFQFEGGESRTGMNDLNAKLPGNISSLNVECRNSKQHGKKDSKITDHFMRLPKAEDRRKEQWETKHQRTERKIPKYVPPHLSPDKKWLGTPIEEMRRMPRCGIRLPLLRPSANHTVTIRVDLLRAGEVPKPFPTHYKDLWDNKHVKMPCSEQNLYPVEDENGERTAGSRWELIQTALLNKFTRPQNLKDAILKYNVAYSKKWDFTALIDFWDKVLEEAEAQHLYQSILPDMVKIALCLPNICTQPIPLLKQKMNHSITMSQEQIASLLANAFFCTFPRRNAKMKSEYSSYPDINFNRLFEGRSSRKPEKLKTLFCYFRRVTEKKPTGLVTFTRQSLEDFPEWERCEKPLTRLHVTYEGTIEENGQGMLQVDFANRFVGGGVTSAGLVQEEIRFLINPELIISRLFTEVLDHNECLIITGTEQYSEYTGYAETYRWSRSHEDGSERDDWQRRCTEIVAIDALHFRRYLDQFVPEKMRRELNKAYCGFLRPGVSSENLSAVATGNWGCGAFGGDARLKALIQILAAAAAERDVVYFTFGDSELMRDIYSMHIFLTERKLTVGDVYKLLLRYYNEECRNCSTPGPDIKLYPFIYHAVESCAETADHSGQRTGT
In words: Nuclear PAR accumulation assay (immunofluorescence high-content imaging, MMS-treated HeLa cells). In kind it is cell-based. The conditions noted are these: 1 hour compound then MMS 50 μg/mL for an additional hour. Put shortly:
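HeLa cells pretreated with compound for 1 h at 37° C, then given 50 μg/mL MMS for another hour. After methanol fixation, PAR was immunostained with DAPI nuclear counterstain; per-nucleus intensity and percent PAR-positive cells were imaged at 20× (≥1,000 cells/well). IC50 from four-parameter logistic fit.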
The molecule `Cc1cnn2c(C#C[C@@H]3CN=C4N(C)C(=O)c5cc(S(=O)(=O)NC6(C)CC6)ccc5N43)cnc2c1` [Example 182, (R)-4-methyl-N-(1-methylcyclopropyl)-1-((7-methylimidazo[1,2-b]pyridazin-3-yl)ethynyl)-5-oxo-1,2,4,5-tetrahydroimidazo[1,2-a]quinazoline-7-sulfonamide] had a pIC50 greater than 7.00.
Turning to `Cc1ccc2ncc(C#C[C@@H]3CN=C4N(C)C(=O)c5cc(S(=O)(=O)NC6(C)CC6)ccc5N43)n2n1` [Example 183, (R)-4-methyl-N-(1-methylcyclopropyl)-1-((6-methylimidazo[1,2-b]pyridazin-3-yl)ethynyl)-5-oxo-1,2,4,5-tetrahydroimidazo[1,2-a]quinazoline-7-sulfonamide], the pIC50 was greater than 7.00.
The value for `[2H]C([2H])([2H])N1C(=O)c2cc(S(=O)(=O)NC3(C)CC3)ccc2N2C1=NCC2C#Cc1cnc2cccnn12` (stereo not shown) [Example 184, 1-(imidazo[1,2-b]pyridazin-3-ylethynyl)-4-(methyl-d3)-N-(1-methylcyclopropyl)-5-oxo-1,2,4,5-tetrahydroimidazo[1,2-a]quinazoline-7-sulfonamide] was greater than 7.00; that for `CN1C(=O)c2cc(S(=O)(=O)NC3(C)CC3)ccc2N2C1=NC[C@H]2C#Cc1ccnn1C` [Example 185, (R)-4-methyl-1-((1-methyl-1H-pyrazol-5-yl)ethynyl)-N-(1-methylcyclopropyl)-5-oxo-1,2,4,5-tetrahydroimidazo[1,2-a]quinazoline-7-sulfonamide] was greater than 7.00; that for `CCN1C(=O)c2cc(S(=O)(=O)NC3(C)CC3)ccc2N2C1=NC[C@H]2C#CC1(N(C)C)CC1` [Example 186, (R)-1-((1-(dimethylamino)cyclopropyl)ethynyl)-4-ethyl-N-(1-methylcyclopropyl)-5-oxo-1,2,4,5-tetrahydroimidazo[1,2-a]quinazoline-7-sulfonamide] was greater than 7.00.
Turning to `CCN1C(=O)c2cc(S(=O)(=O)NC3(C)CC3)ccc2N2C1=NC[C@H]2C#Cc1cnn(C)n1` [Example 187, (R)-4-ethyl-I-((2-methyl-2H-1,2,3-triazol-4-yl)ethynyl)-N-(1-methylcyclopropyl)-5-oxo-1,2,4,5-tetrahydroimidazo[1,2-a]quinazoline-7-sulfonamide], the pIC50 is greater than 7.00.
`CCN1C(=O)c2cc(S(=O)(=O)NC3(C)CC3)ccc2N2C1=NC[C@H]2C#CC1CC1` [Example 188, (R)-1-(cyclopropylethynyl)-4-ethyl-N-(1-methylcyclopropyl)-5-oxo-1,2,4,5-tetrahydroimidazo[1,2-a]quinazoline-7-sulfonamide] gave a pIC50 greater than 7.00.
The value for `CCN1C(=O)c2cc(S(=O)(=O)NC3(C)CC3)ccc2N2C1=NC[C@H]2C#Cc1cnc2cccnn12` [Example 189, (R)-4-ethyl-1-(imidazo[1,2-b]pyridazin-3-ylethynyl)-N-(1-methylcyclopropyl)-5-oxo-1,2,4,5-tetrahydroimidazo[1,2-a]quinazoline-7-sulfonamide] was greater than 7.00; that for `CCN1C(=O)c2cc(S(=O)(=O)NC3(C)CC3)ccc2N2C1=NC[C@H]2C#Cc1cnn2cccnc12` [Example 190, (R)-4-ethyl-N-(1-methylcyclopropyl)-5-oxo-1-(pyrazolo[1,5-a]pyrimidin-3-ylethynyl)-1,2,4,5-tetrahydroimidazo[1,2-a]quinazoline-7-sulfonamide] was greater than 7.00; that for `CCN1C(=O)c2cc(S(=O)(=O)NC3(C)CC3)ccc2N2C1=NC[C@H]2C#Cc1cnc2cc(CN(C)C)cnn12` [Example 191, (R)-1-((7-((dimethylamino)methyl)imidazo[1,2-b]pyridazin-3-yl)ethynyl)-4-ethyl-N-(1-methylcyclopropyl)-5-oxo-1,2,4,5-tetrahydroimidazo[1,2-a]quinazoline-7-sulfonamide] was greater than 7.00.
The value for `Cc1cc(C#C[C@@H]2CN=C3N(Cc4cnn(C)c4)C(=O)c4cc(S(=O)(=O)NC5(C)CC5)ccc4N32)n(C)n1` [Example 192, (R)-1-((1,3-dimethyl-1H-pyrazol-5-yl)ethynyl)-4-((1-methyl-1H-pyrazol-4-yl)methyl)-N-(1-methylcyclopropyl)-5-oxo-1,2,4,5-tetrahydroimidazo[1,2-a]quinazoline-7-sulfonamide] was greater than 7.00.
The value for `Cn1cc(CN2C(=O)c3cc(S(=O)(=O)NC4(C)CC4)ccc3N3C2=NC[C@H]3C#Cc2ccnn2C2CC2)cn1` [Example 193, (R)-1-((1-cyclopropyl-1H-pyrazol-5-yl)ethynyl)-4-((1-methyl-1H-pyrazol-4-yl)methyl)-N-(1-methylcyclopropyl)-5-oxo-1,2,4,5-tetrahydroimidazo[1,2-a]quinazoline-7-sulfonamide] was greater than 7.00; that for `Cc1cc(C#C[C@@H]2CN=C3N(Cc4cnn(C)c4)C(=O)c4cc(S(=O)(=O)NC5(C)CC5)ccc4N32)sn1` [Example 194, (R)-4-((1-methyl-1H-pyrazol-4-yl)methyl)-N-(1-methylcyclopropyl)-1-((3-methylisothiazol-5-yl)ethynyl)-5-oxo-1,2,4,5-tetrahydroimidazo[1,2-a]quinazoline-7-sulfonamide] was greater than 7.00; that for `CCN1C(=O)c2cc(S(=O)(=O)NC3(C)CC3)ccc2N2C1=NC[C@H]2C#Cc1cc(CN(C)C)nn1C` [Example 195, (R)-1-((3-((dimethylamino)methyl)-1-methyl-1H-pyrazol-5-yl)ethynyl)-4-ethyl-N-(1-methylcyclopropyl)-5-oxo-1,2,4,5-tetrahydroimidazo[1,2-a]quinazoline-7-sulfonamide] was greater than 7.00.
Molecule `Cn1cc(CN2C(=O)c3cc(S(=O)(=O)NC4(C)CC4)ccc3N3C2=NC[C@H]3C#Cc2ncnn2C)cn1` [Example 196, (R)-1-((1-methyl-1H-1,2,4-triazol-5-yl)ethynyl)-4-((1-methyl-1H-pyrazol-4-yl)methyl)-N-(1-methylcyclopropyl)-5-oxo-1,2,4,5-tetrahydroimidazo[1,2-a]quinazoline-7-sulfonamide] showed a pIC50 greater than 7.00.
Under `CCN1C(=O)c2cc(S(=O)(=O)NC3(C)CC3)ccc2N2C1=NC[C@H]2C#Cc1ccnn1C` [Example 198, (R)-4-ethyl-1-((1-methyl-1H-pyrazol-5-yl)ethynyl)-N-(1-methylcyclopropyl)-5-oxo-1,2,4,5-tetrahydroimidazo[1,2-a]quinazoline-7-sulfonamide] stands greater than 7.00; under `CN1C(=O)c2cc(S(=O)(=O)NC3(C)CC3)ccc2N2C1=NC[C@H]2C#Cc1cnn(C)c(=O)c1` [Example 199, (R)-4-methyl-1-((1-methyl-6-oxo-1,6-dihydropyridazin-4-yl)ethynyl)-N-(1-methylcyclopropyl)-5-oxo-1,2,4,5-tetrahydroimidazo[1,2-a]quinazoline-7-sulfonamide], greater than 7.00.
Under `CN1C(=O)c2cc(S(=O)(=O)NC3(C)CC3)ccc2N2C1=NCC2C#Cc1ccn(C)c(=O)c1` (stereo not shown) [Example 200, 4-methyl-1-((1-methyl-2-oxo-1,2-dihydropyridin-4-yl)ethynyl)-N-(1-methylcyclopropyl)-5-oxo-1,2,4,5-tetrahydroimidazo[1,2-a]quinazoline-7-sulfonamide] stands 6.00 to 7.00; under `CN1C(=O)c2cc(S(=O)(=O)NC3(C)CC3)ccc2N2C1=NC[C@H]2C#Cc1cnc2ccc(C(F)(F)F)nn12` [Example 201, (R)-4-methyl-N-(1-methylcyclopropyl)-5-oxo-1-((6-(trifluoromethyl)imidazo[1,2-b]pyridazin-3-yl)ethynyl)-1,2,4,5-tetrahydroimidazo[1,2-a]quinazoline-7-sulfonamide], greater than 7.00.
The value for `CN1C(=O)c2cc(S(=O)(=O)NC3(C)CC3)ccc2N2C1=NCC2C#Cc1ccc(C#N)nc1` (stereo not shown) [Example 202, 1-((6-cyanopyridin-3-yl)ethynyl)-4-methyl-N-(1-methylcyclopropyl)-5-oxo-1,2,4,5-tetrahydroimidazo[1,2-a]quinazoline-7-sulfonamide] was greater than 7.00; that for `Cc1ccc(C#CC2CN=C3N(C)C(=O)c4cc(S(=O)(=O)NC5(C)CC5)ccc4N32)cn1` (stereo not shown) [Example 203, 4-methyl-N-(1-methylcyclopropyl)-1-((6-methylpyridin-3-yl)ethynyl)-5-oxo-1,2,4,5-tetrahydroimidazo[1,2-a]quinazoline-7-sulfonamide] was greater than 7.00; that for `COc1ccc(C#CC2CN=C3N(C)C(=O)c4cc(S(=O)(=O)NC5(C)CC5)ccc4N32)cn1` (stereo not shown) [Example 204, 1-((6-methoxypyridin-3-yl)ethynyl)-4-methyl-N-(1-methylcyclopropyl)-5-oxo-1,2,4,5-tetrahydroimidazo[1,2-a]quinazoline-7-sulfonamide] was greater than 7.00.
`CCN1C(=O)c2cc(S(=O)(=O)NC3(C)CC3)ccc2N2C1=NC[C@H]2C#Cc1cnn2c1OCC(NC)C2` (stereo partly drawn) [Example 205, (1R)-4-ethyl-1-((6-(methylamino)-6,7-dihydro-5H-pyrazolo[5,i-b][1,3]oxazin-3-yl)ethynyl)-N-(1-methylcyclopropyl)-5-oxo-1,2,4,5-tetrahydroimidazo[1,2-a]quinazoline-7-sulfonamide]: the pIC50 was 6.00 to 7.00.
Under `CCN1C(=O)c2cc(S(=O)(=O)NC3(C)CC3)ccc2N2C1=NC[C@H]2C#Cc1cnc2cc(C#N)cnn12` [Example 206, (R)-1-((7-cyanoimidazo[1,2-b]pyridazin-3-yl)ethynyl)-4-ethyl-N-(1-methylcyclopropyl)-5-oxo-1,2,4,5-tetrahydroimidazo[1,2-a]quinazoline-7-sulfonamide] stands greater than 7.00.
The value for `CCn1nccc1C#C[C@@H]1CN=C2N(Cc3cnn(C)c3)C(=O)c3cc(S(=O)(=O)NC4(C)CC4)ccc3N21` [Example 207, (R)-1-((1-ethyl-1H-pyrazol-5-yl)ethynyl)-4-((1-methyl-1H-pyrazol-4-yl)methyl)-N-(1-methylcyclopropyl)-5-oxo-1,2,4,5-tetrahydroimidazo[1,2-a]quinazoline-7-sulfonamide] was greater than 7.00.

These data come from patent publication US20260285875A1, “INHIBITORS OF PARG” (858 Therapeutics, Inc., priority 2023, published 2026).
